The text below walks through data of EP4803511A1, “SMALL MOLECULE COMPOUND HAVING SULFONIC ACID OR SULFINIC ACID LACTONE STRUCTURE, COMPOSITION AND USE THEREOF” (Hangzhou Phecdamed Co., Ltd., priority 2023, dated 2025).

The structures appear in SMILES notation.

The experiment concerns HaCaT cells. Briefly: ROS content / ROS scavenging rate in HaCaT after UVB radiation (DCFH-DA). It counts as cell-based, human. The settings on record: for ROS scavenging rate: HaCaT cells after UVB radiation. An excerpt:
Oxidative reactions such as respiration and metabolism in organisms generate reactive free radicals. Under normal bodily conditions, free radicals have a stable scavenging system, so that the free radical content of the body is kept at a relatively low concentration. Oxidative stress (OS) refers to an imbalance between oxidation and antioxidation in the body due to endogenous and/or exogenous stimuli, resulting in excessive free radical production. Excessive free radicals produce a series of negative effects in the body, including oxidative damage to biomolecules and further causing cell death and tissue damage, etc. In organisms, almost all ROS, except for trace amounts utilized by the body, should be promptly scavenged. Medium Wave Erythema Effect Ultraviolet (UVB) (280-319 nm) radiation damage is the most important factor leading to photoaging of the skin, primarily damaging keratinocytes (HaCaT), specifically manifested as the accumulation of photoproducts, increased ROS, and exacerbated oxidative damage, etc. Over long periods of evolution, organisms have developed a complete antioxidant system, maintaining a dynamic balance between the production and elimination of free radicals. This is an adaptive mechanism of organisms, and the main members include antioxidant enzymes, antioxidants, and proteins that separate transition metals, all of which can specifically limit oxidative damage to the body. Therefore, the antioxidant efficacy of a test compound can be evaluated by detecting the ROS scavenging rate in keratinocytes after UVB radiation.
• 1) Cell inoculation: HaCaT cells were inoculated into a 96-well plate at 2 × 10^4/well, cultured in an incubator (37 °C, 5% CO2) for 12 hrs, and a control group (120 mJ/cm^2 + vehicle control), a low concentration group (120 mJ/cm^2 + low concentration compound), a medium concentration group (120 mJ/cm^2 + medium concentration compound), and a high concentration group (120 mJ/cm^2 + high concentration compound) were respectively provided. • 2) UVB modeling: The HaCaT cells were washed 3 times with D'Hanks before UVB radiation, 50 µL of D'Hanks was added into the wells, to make the cells to be immersed, and the control group was coated with tinfoil and placed in the dark. For the test groups, UVB modeling was performed on the group requiring radiation, respectively. • 3) Administration: DMEM medium containing different concentrations of compound were added to each test group for continued culture for 24 hrs. • 4) Transferring the ROS fluorescent probe: DCFH-DA was Diluted to a final concentration of 10 µmol/L using PBS at a dilution ratio of 1:1000. The culture medium in all wells except the bare cell wells was discarded. After washing three times with PBS, 200 µL of DCFH-DA working solution was added to each well, then incubated in a CO2 incubator for 30 min, and after incubation, the cells in each well were washed with PBS for 3 times. • 5) Fluorescence analysis. The 96-well plate to be tested was placed on the detection stage of the fluorescence microplate reader, with the […] set to 525 nm, the excitation light wavelength set to 488 nm, and the reading was analyzed.
ROS scavenging rate (%) = (S(Modelcontrolgroup)−S(Samplegroup))/(S(Modelcontrolgroup)) × 100% [formula] wherein S is fluorescence intensity.

Take `O=S1(=O)Oc2cc(O)ccc2-c2ccc(O)cc21` [Compound I-8]: the “ROS content in HaCaT after UVB radiation” value (HaCaT, UVB 120 mJ/cm^2, 24 hrs, low, medium, high concentration) was “scavenging ROS in a dose-dependent manner”. The ROS scavenging rate by setting is: (content 0.00015625%) 12%; (content 0.000625%) 22%; (content 0.0025%) 26%.
